Data on 40 compounds can be found in patent EP2818472A1, “Imidazo[4,5-c]pyridine and pyrrolo[3,2-c]pyridine compounds as G-protein-coupled receptor kinase 5 (GRK5) modulators” (Max-Planck-Gesellschaft zur Förderung der Wissenschaften …, priority 2013, dated 2014).

A value given as a limit tells only on which side of the number the result lay.

One experiment has as its system beta-TC6 cells. Put plainly: Insulin HTRF assay (relative activity Ar) in beta-TC6 cells. The format is cell-based, mouse. The conditions noted are these: Mus musculus, Beta-TC6, 4 h, insulin HTRF, supernatant of beta-TC6 cells, incubation with test compound at 37°C for 2, 3, 4h; read-out: Ar (relative activity). In outline:
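beta-TC6 cells (15k/well, seeded 24 or 48 h) washed, then exposed to compound in induction buffer (0.5% DMSO final) for 2, 3 or 4 h at 37°C.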
Turning to `COc1cccc(-c2cc3c(Nc4cccc(S(C)(=O)=O)c4)nccc3[nH]2)c1` [Compound 311, 2-(3-methoxyphenyl)-N-(3-methylsulfonylphenyl)-1H-pyrrolo[3,2-c]pyridin-4-amine], the Emax lay in the range of 50 to 100%.

As to `CNc1nc2cnc(Nc3ccc(NC(C)=O)cc3)cc2n1Cc1ccc(OC)c(OC)c1` [Compound 661, N-[4-[[1-[(3,4-dimethoxyphenyl)methyl]-2-(methylamino)imidazo[4,5-c]pyridin-6-yl]amino]phenyl]acetamide], the Emax is 50 to 100%.

In the case of `CNc1nc2cnc(Nc3ccc4c(c3)OCCO4)cc2n1CC1CC1` [Compound 570, 1-(cyclopropylmethyl)-N6-(2,3-dihydro-1,4-benzodioxin-6-yl)-N2-methyl-imidazo[4,5-c]pyridine-2,6-diamine], the Emax lay within 30 to 50%.

With `CC(=O)c1cccc(Nc2cc3[nH]c(-c4ccc(C(=O)N(C)C)cc4)cc3cn2)c1` [Compound 42, 4-[6-(3-acetylanilino)-1H-pyrrolo[3,2-c]pyridin-2-yl]-N,N-dimethyl-benzamide], the Emax lay within 50 to 100%.

As for `Cn1c(-c2ccsc2)cc2c(Nc3cccc(NS(C)(=O)=O)c3)nccc21` [Compound 286, N-[3-[[1-methyl-2-(3-thienyl)pyrrolo[3,2-c]pyridin-4-yl]amino]phenyl]methanesulfonamide], the Emax fell in the range of 50 to 100%.

For the compound `CN(C)C(=O)c1ccc(-c2cc3cnc(Nc4ccccc4)cc3[nH]2)cc1` [Compound 24, 4-(6-anilino-1 H-pyrrolo[3,2-c]pyridin-2-yl)-N,N-dimethyl-benzamide], the Emax lay within 50 to 100%.

With `Fc1cccc(-c2nc3c(NCCc4ccccn4)nccc3[nH]2)c1` [Compound 406, 2-(3-fluorophenyl)-N-[2-(2-pyridyl)ethyl]-1H-imidazo[4,5-c]pyridin-4-amine], the Emax was in the range of 50 to 100%.

`OCCNc1nccc2[nH]c(-c3ccc4c(c3)OCCO4)nc12` [Compound 416, 2-[[2-(2,3-dihydro-1,4-benzodioxin-6-yl)-1H-imidazo[4,5-c]pyridin-4-yl]amino]ethanol]: the Emax was in the range of 30 to 50%.

In the case of `CNc1nc2cnc(Nc3cccc(C)c3)cc2n1Cc1ccc(OC)c(OC)c1` [Compound 671, 1-[(3,4-dimethoxyphenyl)methyl]-N2-methyl-N6-(m-tolyl)imidazo[4,5-c]pyridine-2,6-diamine], the Emax lay within 30 to 50%.

For the compound `COc1ccc(-c2nc3c(NC4CCC(O)CC4)nccc3[nH]2)cc1OC` (stereo not shown) [Compound 348, 4-[[2-(3,4-dimethoxyphenyl)-1H-imidazo[4,5-c]pyridin-4-yl]amino]cyclohexanol], the Emax is 30 to 50%.

`CS(=O)(=O)Nc1cccc(Nc2cc3[nH]c(-c4cccc(F)c4)cc3cn2)c1` [Compound 13, N-[3-[[2-(3-fluorophenyl)-1H-pyrrolo[3,2-c]pyridin-6-yl]amino]phenyl]methanesulfonamide]: the Emax was 50 to 100%.

For `CS(=O)(=O)Nc1cccc(Nc2nccc3[nH]c(-c4cccc(F)c4)cc23)c1` [Compound 205, N-[3-[[2-(3-fluorophenyl)-1H-pyrrolo[3,2-c]pyridin-4-yl]amino]phenyl]methanesulfonamide], the Emax lay in the range of 50 to 100%.

As for `CNc1nc2cnc(Nc3ccc(OC)cc3)cc2n1CCOC` [Compound 496, 1-(2-methoxyethyl)-N6-(4-methoxyphenyl)-N2-methyl-imidazo[4,5-c]pyridine-2,6-diamine], the Emax was in the range of 50 to 100%.

As for `COc1ccc(-c2nc3cnc(Nc4cc(OC)c(OC)c(OC)c4)cc3n2C)cc1OC` [Compound 716, 2-(3,4-dimethoxyphenyl)-1-methyl-N-(3,4,5-trimethoxyphenyl)imidazo[4,5-c]pyridin-6-amine], the Emax was in the range of 50 to 100%.

In the case of `Cn1cncc1-c1cc2cnc(Nc3cccc(F)c3)cc2[nH]1` [Compound 108, N-(3-fluorophenyl)-2-(3-methylimidazol-4-yl)-1H-pyrrolo[3,2-c]pyridin-6-amine], the Emax lay in the range of 50 to 100%.

On to `c1cc2[nH]c(-c3ccsc3)cc2c(N2CCOCC2)n1` [Compound 191, 4-[2-(3-thienyl)-1H-pyrrolo[3,2-c]pyridin-4-yl]morpholine], for which the Emax lay within 50 to 100%.

Turning to `COc1cc(Nc2nccc3[nH]c(-c4ccncc4)nc23)cc(OC)c1OC` [Compound 421, 2-(4-pyridyl)-N-(3,4,5-trimethoxyphenyl)-1H-imidazo[4,5-c]pyridin-4-amine], the Emax was in the range of 50 to 100%.

As for `COc1cccc(-c2cc3c(Nc4ccc(OC)c(O)c4)nccc3[nH]2)c1` [Compound 312, 2-methoxy-5-[[2-(3-methoxyphenyl)-1H-pyrrolo[3,2-c]pyridin-4-yl]amino]phenol], the Emax was in the range of 50 to 100%.

Turning to `CNc1nc2cnc(-c3cccc(O)c3)cc2n1Cc1ccccc1` [Compound 533, 3-[1-benzyl-2-(methylamino)imidazo[4,5-c]pyridin-6-yl]phenol], the Emax was 50 to 100%.

Regarding `CN(C)C(=O)c1ccc(-c2cc3cnc(Nc4cccnc4)cc3[nH]2)cc1` [Compound 22, N,N-dimethyl-4-[6-(3-pyridylamino)-1H-pyrrolo[3,2-c]pyridin-2-yl]benzamide], the Emax was above 100%.

As for `CNc1nc2cnc(Nc3cccc(O)c3)cc2n1-c1cccc(C(F)(F)F)c1` [Compound 550, 3-[[2-(methylamino)-1-[3-(trifluoromethyl)phenyl]imidazo[4,5-c]pyridin-6-yl]amino]phenol], the Emax was in the range of 30 to 50%.

Take `COCCCNc1nccc2[nH]c(-c3ccc4c(c3)OCCO4)nc12` [Compound 420, 2-(2,3-dihydro-1,4-benzodioxin-6-yl)-N-(3-methoxypropyl)-1H-imidazo[4,5-c]pyridin-4-amine]: the Emax lay in the range of 30 to 50%.

Regarding `CNc1nc2cnc(Nc3ccc(S(C)(=O)=O)cc3)cc2n1-c1ccccc1` [Compound 518, N2-methyl-N6-(4-methylsulfonylphenyl)-1-phenyl-imidazo[4,5-c]pyridine-2,6-diamine], the Emax lay in the range of 50 to 100%.

As for `COc1cccc(-c2nc3c(Nc4cccc(S(C)(=O)=O)c4)nccc3[nH]2)c1F` [Compound 477, 2-(2-fluoro-3-methoxy-phenyl)-N-(3-methylsulfonylphenyl)-1H-imidazo[4,5-c]pyridin-4-amine], the Emax is 30 to 50%.

With `Cn1c(-c2ccco2)nc2cnc(-c3cccc(OC(F)(F)F)c3)cc21` [Compound 756, 2-(2-furyl)-1-methyl-6-[3-(trifluoromethoxy)phenyl]imidazo[4,5-c]pyridine], the Emax is 0 to 30%.

With `COc1ccc(OC)c(CCNc2nc3cnc(-c4ccsc4)cc3n2C)c1` [Compound 592, N-[2-(2,5-dimethoxyphenyl)ethyl]-1-methyl-6-(3-thienyl)imidazo[4,5-c]pyridin-2-amine], the Emax fell in the range of 50 to 100%.

`CNc1nc2cnc(Nc3ccc(F)cc3)cc2n1C` [Compound 611, N6-(4-fluorophenyl)-N2,1-dimethyl-imidazo[4,5-c]pyridine-2,6-diamine]: the Emax lay in the range of 30 to 50%.

Turning to `c1ccc(Cn2c(-c3ccccc3)cc3cnc(Nc4ccncn4)cc32)cc1` [Compound 184, 1-benzyl-2-phenyl-N-pyrimidin-4-yl-pyrrolo[3,2-c]pyridin-6-amine], the Emax was 30 to 50%.

As for `Cn1cnc2c(Nc3ccc4[nH]ccc4c3)nccc21` [Compound 448, N-(1H-indol-5-yl)-1-methyl-imidazo[4,5-c]pyridin-4-amine], the Emax is 50 to 100%.

Consider `Cn1c(-c2ccsc2)cc2c(Nc3cccc(S(C)(=O)=O)c3)nccc21` [Compound 282, 1-methyl-N-(3-methylsulfonylphenyl)-2-(3-thienyl)pyrrolo[3,2-c]pyridin-4-amine], for which the Emax lay within 30 to 50%.

Take `CNc1nc2cnc(Nc3cccc(O)c3)cc2n1-c1cc(OC)c(OC)c(OC)c1` [Compound 491, 3-[[2-(methylamino)-1-(3,4,5-trimethoxyphenyl)imidazo[4,5-c]pyridin-6-yl]amino]phenol]: the Emax was 50 to 100%.

For the compound `CNc1nc2cnc(-c3ccc(N(C)C)cc3)cc2n1Cc1ccccc1` [Compound 525, 1-benzyl-6-(4-dimethylaminophenyl)-N-methyl-imidazo[4,5-c]pyridin-2-amine], the Emax fell in the range of 30 to 50%.

Turning to `COCCNc1nc2cnc(-c3ccc(S(C)(=O)=O)cc3)cc2n1C` [Compound 648, N-(2-methoxyethyl)-1-methyl-6-(4-methylsulfonylphenyl)imidazo[4,5-c]pyridin-2-amine], the Emax was in the range of 30 to 50%.

Consider `CC(=O)Nc1ccc(Nc2nccc3[nH]c(-c4ccsc4)cc23)cc1` [Compound 249, N-[4-[[2-(3-thienyl)-1H-pyrrolo[3,2-c]pyridin-4-yl]amino]phenyl]acetamide], for which the Emax is above 100%.

As for `CNc1nc2cnc(-c3cccc(Cl)c3)cc2n1Cc1ccccc1` [Compound 532, 1-benzyl-6-(3-chlorophenyl)-N-methyl-imidazo[4,5-c]pyridin-2-amine], the Emax fell in the range of 50 to 100%.

Take `COc1ccc(Nc2nccc3[nH]c(-c4cccnc4)cc23)cc1O` [Compound 236, 2-methoxy-5-[[2-(3-pyridyl)-1H-pyrrolo[3,2-c]pyridin-4-yl]amino]phenol]: the Emax lay in the range of 50 to 100%.

Regarding `CNc1nc2cnc(Nc3ccc(SC)cc3)cc2n1Cc1ccc(OC)c(OC)c1` [Compound 675, 1-[(3,4-dimethoxyphenyl)methyl]-N2-methyl-N6-(4-methylsulfanylphenyl)imidazo[4,5-c]pyridine-2,6-diamine], the Emax is 50 to 100%.

With `CNc1nc2cnc(-c3cccc(N(C)C)c3)cc2n1-c1cccc(F)c1` [Compound 683, 6-[3-(dimethylamino)phenyl]-1-(3-fluorophenyl)-N-methyl-imidazo[4,5-c]pyridin-2-amine], the Emax was 30 to 50%.

Consider `CN(C)C(=O)c1ccc(-c2cc3c(Nc4cccc(NS(C)(=O)=O)c4)nccc3n2C)cc1` [Compound 225, 4-[4-[3-(methanesulfonamido)anilino]-1-methyl-pyrrolo[3,2-c]pyridin-2-yl]-N,N-dimethyl-benzamide], for which the Emax was 30 to 50%.

The experiment is the same for the next values; noted with them: insulin HTRF, supernatant of beta-TC6 cells, incubation with test compound at 37°C for 2, 3, 4h.
Consider `Sc1nc2cnccc2n1-c1ccccc1` [Compound 744, 1-phenylimidazo[4,5-c]pyridine-2-thiol], for which the “Ar (relative activity)” value is recorded as “++ (30 % ≤ Ar < 50 %)”.
